Source: patent publication US20250195498A1, “INHIBITOR OF CELLULAR PURINE NUCLEOTIDE SALVAGE PATHWAY ENZYME FOR USE IN THE TREATMENT AND/OR PREVENTION OF HELICOBACTER PYLORI INFECTION AND/OR DISEASE ASSOCIATED WITH SUCH INFECTION AND PHARMACEUTICAL COMPOSITION COMPRISING THE SAME” (UNIWERSYTET WARSZAWSKI, priority 2022, published 2025)
Converted amounts (≈) assume the structure as drawn. “And” between values parts separate entries of the source, which are not always exact repeats. Equal entries are not always repeated. Where two headings read alike, the source gives them in different places. Marks after values point to notes of the source that are not given here. Values belong to the compound of their own block, whether it stands above or below them.

How the values were obtained:
[1] = system: H. pylori strain N6; assay: Growth curve method / MIC, strain N6; assay type: cell-based, Helicobacter pylori; conditions: strain N6; concentrations up to 5 mM
Experimental: (§1) The representative PNP inhibitor from H. pylori included in this study was immucillin A. The experiment was conducted using the growth curve method (two-fold serial dilutions in liquid medium). The tested H. pylori strains were cultured in Petri dishes with BHI solid medium supplemented with 10% FBS and 1% H. pylori Selective Supplement antibiotic kit, in anaerostats under microaerophilic conditions (5% 02, 10% CO2, 85% N2) at 37° C. for 3 days. Liquid culture of H. pylori was conducted overnight with shaking at 37° C. under microaerophilic conditions in BHI medium supplemented with 10% FBS and 1% H. pylori Selective Supplement antibiotic kit. Subsequently, for the essential experiment of determining the minimum inhibitory concentration (MIC), double strengthened liquid BHI medium was prepared, that is, supplemented with 20% FBS and a 2% set of H. pylori Selective Supplement antibiotics.
(§2) Bacterial proliferation inhibition experiments were carried out in 24-deep-well 2 ml flat-bottomed plates at a solution volume per well of 0.5 ml. In a single well, double strengthened (relative to the concentration planned for testing) solutions of the test inhibitor and double strengthened liquid BHI medium inoculated with H. pylori (10^4-10^5 CFU/ml in the final volume in the well, corresponding to the optical density of the culture OD600=0.05) were mixed together in a 1:1 ratio.
(§3) Kanamycin at a concentration of 25 μg/ml (Irie et al., 1997) was used as a positive control, while Mili-Q deionized water and BHI medium not inoculated with bacteria were used as negative controls. Plates were shaken at 37° C., under microaerophilic conditions. […] After 24 hours, the OD600 of samples containing the negative control, i.e. with Mili-Q deionized water, was about 1.2-1.4, corresponding to a bacterial concentration of about […].
(§4) In addition, the method proposed by Knezevic et al. (2018) was used to check whether the observed OD600 was from live bacterial cells. For this purpose, an equal volume of Christensen's double strength urea broth (that is, containing twice the concentration of all components) was added to the wells after incubation, and the plates were additionally incubated for 4 hours in an oxygen atmosphere at 37° C. During incubation, in wells with urease produced by live bacteria, urea is converted to ammonia and carbon dioxide, changing the pH of the solution and thus the colour of the phenol red indicator contained in the medium (from orange to purple).
(§5) All experiments were performed in triplicate.
(§6) Inhibition by PLP and its metabolic precursors of the growth of H. pylori strains: 26695, N6 and P12 in culture was investigated using the growth curve method as described in Example 3. From these experiments, the minimum inhibitory concentration was determined as the lowest concentration of a compound that inhibits the visible growth of the bacteria, compared to growth in control samples without the tested compounds. All experiments were carried out in triplicate.

[2] = system: H. pylori strain P12; assay: Growth curve method / MIC, strain P12; assay type: cell-based, Helicobacter pylori; conditions: strain P12; concentrations up to 5 mM
Experimental: as §1, §2, §3, §4, §5, §6

[3] = system: H. pylori strain 26695; assay: Growth curve method / MIC in liquid culture, strain 26695; assay type: cell-based, Helicobacter pylori; conditions: strain 26695; for inhibition of bacterial growth: concentrations up to 5 mM; for MIC: read-out: MIC
Experimental: as §1, §2, §3, §4, §5
The experiments were carried out using the growth curve method as described in Example 3, and the results obtained for two of the compounds tested are shown in FIG. 5. As the water solubility of the compounds tested, with the exception of 2,6-diCl-Pu, is relatively poor, two experiments were carried out: the first with the maximum concentration possible under the experimental conditions in aqueous solution with a small admixture of DMSO, and the second with higher concentrations that led to partial precipitation of the compound.
The antibacterial activity of two compounds, mefloquine (in the form of hydrochloride) and quinine, described in the literature as potent in vitro inhibitors of the PNP enzyme from Plasmodium falciparum (Dziekan et al., 2019), was tested. Using a two-fold serial dilution method in liquid medium (as described in Example 3), the MIC values for mefloquine and quinine were determined against clinical H. pylori strains resistant to MTZ, CLR and MTZ+CLR (M26, M91, M92 and M93), as well as the reference H. pylori strain 26695. Four clinical H. pylori strains isolated from adults, from primary infections (the subjects had never previously been treated against H. pylori infection) were tested. These strains come from the collection of the Department of Microbiology of the Medical University of Wroclaw and were obtained due to collaboration with Prof. Grażyna Gościniak, MD, PhD. […]

[4] = system: H. pylori; conditions: 2021, cited from earlier work; for MIC (literature): MTZ according to EUCAST, kanamycin according to Irie et al., 1997
[5] = system: H. pylori strain M91 (MTZ + CLR resistant); assay: Growth curve method / MIC, resistant strain M91; assay type: cell-based, Helicobacter pylori; conditions: for MIC: strain M91, MTZ + CLR resistant
Experimental: as §1, §2, §3, §4, §5
(§7) The antibacterial activity of two compounds, mefloquine (in the form of hydrochloride) and quinine, described in the literature as potent in vitro inhibitors of the PNP enzyme from Plasmodium falciparum (Dziekan et al., 2019), was tested. Using a two-fold serial dilution method in liquid medium (as described in Example 3), the MIC values for mefloquine and quinine were determined against clinical H. pylori strains resistant to MTZ, CLR and MTZ+CLR (M26, M91, M92 and M93), as well as the reference H. pylori strain 26695. Four clinical H. pylori strains isolated from adults, from primary infections (the subjects had never previously been treated against H. pylori infection) were tested. These strains come from the collection of the Department of Microbiology of the Medical University of Wroclaw and were obtained due to collaboration with Prof. Grażyna Gościniak, MD, PhD. The tested compounds belong to organic substances and are soluble in DMSO. The maximum tested concentration of quinine in H. pylori culture was 0.56 mM, and that of mefloquine was 2.25 mM. […] On each occasion, the effect of DMSO alone on the growth of the H. pylori strains tested was also checked. […] Kanamycin was used as a positive control and Mili-Q deionised water as a negative control. All experiments were carried out in triplicate. […]

[6] = system: H. pylori strain M93 (MTZ resistant); assay: Growth curve method / MIC, resistant strain M93; assay type: cell-based, Helicobacter pylori; conditions: for MIC: strain M93, MTZ resistant
Experimental: as §1, §2, §3, §4, §5, §7

[7] = system: H. pylori strain M92 (CLR resistant); assay: Growth curve method / MIC, resistant strain M92; assay type: cell-based, Helicobacter pylori; conditions: for MIC: strain M92, CLR resistant
Experimental: as §1, §2, §3, §4, §5, §7

[8] = system: H. pylori strain M26 (MTZ + CLR resistant); assay: Growth curve method / MIC, resistant strain M26; assay type: cell-based, Helicobacter pylori; conditions: for MIC: strain M26, MTZ + CLR resistant
Experimental: as §1, §2, §3, §4, §5, §7

[9] = target: T1, AdSS from H. pylori strain 26695 (Helicobacter pylori, UniProt P56137); assay: AdSS enzyme activity assay (adenylosuccinate formation, 280 nm); assay type: biochemical
T1 construct: made in house; host or cells: E. coli BL21 (DE3)
T1 sequence (P56137 1-411): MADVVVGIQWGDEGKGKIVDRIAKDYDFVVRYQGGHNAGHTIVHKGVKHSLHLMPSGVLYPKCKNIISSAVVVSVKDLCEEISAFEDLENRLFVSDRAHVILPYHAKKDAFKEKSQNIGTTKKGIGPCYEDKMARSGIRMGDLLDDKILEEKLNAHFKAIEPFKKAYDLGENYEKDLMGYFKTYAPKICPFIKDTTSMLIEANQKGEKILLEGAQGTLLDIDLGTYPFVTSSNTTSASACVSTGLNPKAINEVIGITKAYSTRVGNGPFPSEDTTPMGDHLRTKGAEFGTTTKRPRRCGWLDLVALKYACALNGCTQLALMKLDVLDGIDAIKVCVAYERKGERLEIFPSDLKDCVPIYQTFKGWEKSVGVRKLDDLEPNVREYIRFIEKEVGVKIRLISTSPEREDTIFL
Experimental: Enzymatic activity measurements were carried out in the similar manner as described in Bubić et al. (2018), at 25° C., in cuvettes with an optical path length of 1 cm containing 1 ml of reaction mixture consisting of 20 mM Hepes/NaOH buffer pH 7.7, 1 mM MgSO4 and the substrates, GTP, IMP and Asp. Saturating concentrations of substrates, namely GTP: 0.06 mM, IMP: 0.15 mM and Asp: 5 mM, were used to measure specific activity. The extinction coefficient at 280 nm of 1.17×10^4 M^−1 cm^−1 (adenylosuccinate formation) was used to calculate the concentration of the product formed (Rudolph and Fromm 1969). One unit (U) of AdSS specific activity is defined as μmol of adenylosuccinate produced per minute at 25° C. Specific activity is expressed as units of enzymatic activity per mg of protein (U/mg).
Inhibition of AdSS by PLP was examined first at saturation with all enzyme substrates and with increasing concentrations of the PLP inhibitor.
To determine the extent to which PLP-induced inactivation develops over time, the enzyme at low concentration (0.022 μM) was incubated at 25° C. in Hepes/NaOH buffer pH 7.0, in the presence of 1.11 mM MgSO4, 5.55 mM Asp, 167 μM IMP and PLP at various concentrations (ranging between 0.03 μM and 8.1 μM). The mixture contained all components necessary for the reaction with the exception of GTP, which, according to Dong and Fromm (1990), competes with PLP. Aliquots of 900 μl were taken from the incubated mixture at specified time intervals, placed in a cuvette and 100 μl of 0.6 mM GTP solution was added to initiate the reaction. The enzyme activity was determined and analysed in the known manner as described above.
Exponential decays were fitted to the data obtained for each concentration and the reaction rate constant of the inactivation process, k, and the residual enzymatic activity observed when the system reached equilibrium, A∞, were obtained as fitting parameters. From these parameters, the half-life of the inactivation process activity, t1/2, was calculated. The dependence of these three parameters on PLP concentration is shown in the lower panel of FIG. 12.
The inhibition of AdSS from H. pylori by pyridoxal (PI-h) was studied at saturation with all enzyme substrates and with increasing concentrations of the inhibitor, similar to that for PLP in Example 10a).

[10] = Helicobacter pylori, read-out: MIC
[11] = listed as Mefloquine (hydrochloride)
[12] = listed as Mefloquine (hydrochloride), read-out: MIC

SMILES: Cc1ncc(CO)c(CO)c1O [pyridoxine]
inhibition of bacterial growth [1]: no inhibition of bacterial growth
inhibition of bacterial growth [2]: no inhibition of bacterial growth
inhibition of bacterial growth [3]: no inhibition of bacterial growth

SMILES: Cc1ncc([N+](=O)[O-])n1CCO [Metronidazole, metronidazole]
inhibition at 12 µM ([3]; Helicobacter pylori, metronidazole 12 μM (2 μg/ml), not maximum solubility, read-out: % inhibition of H. pylori cell cultures): 89 to 92%
MIC (literature) [4]: 8 ^f μg/ml and 47 μM
MIC (literature) ([4]; listed as MTZ): 47 μM and 8 μg/ml

SMILES: Cc1ncc(CO)c(CN)c1O.Cl.Cl [pyridoxamine dihydrochloride]
inhibition of bacterial growth [1]: no inhibition of bacterial growth
inhibition of bacterial growth [2]: no inhibition of bacterial growth
inhibition of bacterial growth [3]: no inhibition of bacterial growth

MIC [5, 10]: 50 µM and 21 µg/mL
MIC [5, 11]: (21 μg/ml)
MIC [5, 12]: 50 µM
MIC [6, 10]: 35 µM and 14.5 µg/mL
MIC [6, 11]: (14.5 μg/ml)
MIC [6, 12]: 35 µM (≈ 13.2 µg/mL)
MIC ([3]; Helicobacter pylori): 50 µM and 21 µg/mL
MIC [7, 10]: 40 µM and 17 µg/mL
MIC [7, 11]: (17 μg/ml)
MIC [7, 12]: 40 µM (≈ 15.1 µg/mL)
MIC [8, 10]: 35 µM and 14.5 µg/mL
MIC [8, 11]: (14.5 μg/ml)
MIC [8, 12]: 35 µM
SMILES: OC(c1cc(C(F)(F)F)nc2c(C(F)(F)F)cccc12)C1CCCCN1 (stereo not drawn) [mefloquine]

SMILES: C=C[C@H]1C[N@@]2CC[C@H]1C[C@H]2[C@H](O)c1ccnc2ccc(OC)cc12 [quinine]
MIC [5, 10]: ≥ 560 µM and ≥ 182 µg/mL
inhibition at 400 µM ([5]; Helicobacter pylori, strain M91, quinine 0.4 mM, read-out: percentage of growth inhibition): 78%
inhibition at 560 µM ([5]; Helicobacter pylori, strain M91, quinine 0.56 mM (highest tested), read-out: percentage of growth inhibition): 86%
MIC [5]: ≥0.56 mM and (≥182 μg/ml)
MIC [6, 10]: ≥ 400 µM and ≥ 130 µg/mL
inhibition at 400 µM ([6]; Helicobacter pylori, strain M93, quinine 0.4 mM, read-out: percentage of growth inhibition): 91%
MIC [6]: ≥0.4 mM and (≥130 μg/ml)
inhibition at 400 µM ([3]; Helicobacter pylori, quinine 0.4 mM, read-out: percentage of growth inhibition): 91%
MIC ([3]; Helicobacter pylori): ≥ 400 µM and ≥ 130 µg/mL
MIC [7, 10]: ≥ 400 µM and ≥ 130 µg/mL
inhibition at 400 µM ([7]; Helicobacter pylori, strain M92, quinine 0.4 mM, read-out: percentage of growth inhibition): 76%
MIC [7]: ≥0.4 mM and (≥130 μg/ml)
MIC [8, 10]: ≥ 400 µM and ≥ 130 µg/mL
inhibition at 400 µM ([8]; Helicobacter pylori, strain M26, quinine 0.4 mM, read-out: percentage of growth inhibition): 87%
MIC [8]: ≥0.4 mM and (≥130 μg/ml)

inhibition of AdSS from H. pylori [9]: strongly inhibits
SMILES: O=CN(O)CC(=O)O [hadacidin]
inhibition of proliferation of H. pylori ([4]; Wojtyś et al.): does not inhibit the proliferation of bacteria
